Experimental data as given in patent US20050249675A1, “Mucin synthesis inhibitors” (priority 2003, published 2005).
“Also recorded” adds a separate entry of the source. Read-outs that look alike come from different tables or passages of the source.

Tests used:
[1] = test system: mice sensitized to Aspergillus fumigatus; assay: Aspergillus fumigatus murine asthma model, talniflumate chow; assay type: in vivo; conditions: oral; for Lung eosinophilia by bronchoalveolar lavage: talniflumate chow, vs sensitized mice fed standard chow
NCI-H292/hCLCA1 cells = assay: AB/PAS staining of mucous glycoconjugates in NCI-H292/hCLCA1 cells; assay type: cell-based, human; conditions: NFA 100 μM, MFA 125 or 250 μM, talniflumate 12.5, 25 or 50 μM; vs untreated cells
Method: For the determination of mucous glycoconjugate production, NCI-H292/ctl and NCI-H292/hCLCA1 (AAF 15) cells were cultured in 24-well plates for 3 days. Cells were then fixed with Formalin and mucous glycoconjugates were visualized by AB/PAS staining (Sigma). […] For chloride channel blockage studies, cells were cultured in the presence of niflumic acid (NFA) (Sigma) at 100 μM concentration, mefanamic acid (MFA) at 125 or 250 μM or talniflumate at 12.5, 25 or 50 μM, or media alone.
For the determination of mucous glycoconjugate production, NCI-H292/hCLCA1 cells were cultured in 24-well plates for 3 days with at concentrations of 0 to 150 μM of the talniflumate enantiomers or media alone (control). Cells were then fixed with Formalin and mucous glycoconjugates were visualized by AB/PAS staining (Sigma). […] In this assay both enantiomers were seen to inhibit muco-glycoconjugate production at concentrations>40 μM.

[2] = test system: MUC5A/C secretion in hCLCA1 expressing H292 cells; assay: MUC5A/C secretion by ELLA in hCLCA1 expressing H292 cells; assay type: cell-based, human; set-up: key to ELLA: (+) = inhibition; (−) = no inhibition
H292 clone 15 cells [3] = assay: ELLA for MUC5AC, H292 clone 15 cells (Example 11); assay type: cell-based, human; conditions: MUC5AC in conditioned media, 48 hours, average of 3 experiments
Method: ELLA (Enzyme-Linked Lectin Assay) was used to determine the inhibitory effect of compounds on mucus production by H292 clone 15 cells. H292 clone 15 cells, a subclone from human pulmonary mucoepidermoid carcinoma cells overexpressing hCLCA1, were grown to confluent, followed by incubation with increasing concentrations of compounds for 48 hours. Conditioned media were collected and MUC5AC (the major secretory mucin in lungs) content was determined by ELLA measurement as described below. 96 well microtiter plates were coated with a mouse monoclonal antibody against human MUC5AC (1-13M1, NeoMarkers), then incubated with test conditioned media. Bound MUC5AC was detected by horseradish peroxidase-conjugated soybean lectin that has a high affinity towards highly-glycosylated proteins such as MUC5AC. Conversion of peroxidase substrate TMB (Tetramethylbenzidine Base) was quantified by reading at 450 nm. O.D. (optical density) readings were plotted against concentrations of compounds. Linear regression was used to derive the concentration at which O.D. was reduced by 50% (IC50) when compared to vehicle-treated cells.

[4] = test system: CF mice (CF knock-out mice and CF AF508 mice); assay: CF mice body weight and survival on talniflumate chow; assay type: in vivo; conditions: approximate dose of 100 mg/kg per os in chow
Method: Within two weeks of weaning, the osmotic agent treatment was discontinued and the mice were either placed on talniflumate containing chow or control chow. The CF mice consuming control chow lost 10-15% body weight and died (CF knock-out) or were euthanized (CF AF508) due to the animal's moribund state within 7 days post-osmotic agent. In contrast, the CF mice that consumed talniflumate (approximate dose of 100 mg/kg per os) gained 8-12% body weight and survived at least 26 days, at which time they were sacrificed to evaluate histopathology (see FIG. 20).

MUC2 = assay type: cell-based; conditions: LTA from S. aureus; FIG. 22
[5] = biological target: T1, human chloride channel hCLCA1 (Homo sapiens, UniProt A8K7I4); assay: Patch clamp chloride current, NCI-H292 cell expressing hCLCA1; assay type: cell-based; conditions: 5 micromolar talniflumate; 2 μM ionomycin and 2 mM calcium; positive voltage
T1 construct: expressed in transfected cells; host or cells: NCI-H292 (human pulmonary mucoepidermoid carcinoma)
T1 sequence (A8K7I4 22-914): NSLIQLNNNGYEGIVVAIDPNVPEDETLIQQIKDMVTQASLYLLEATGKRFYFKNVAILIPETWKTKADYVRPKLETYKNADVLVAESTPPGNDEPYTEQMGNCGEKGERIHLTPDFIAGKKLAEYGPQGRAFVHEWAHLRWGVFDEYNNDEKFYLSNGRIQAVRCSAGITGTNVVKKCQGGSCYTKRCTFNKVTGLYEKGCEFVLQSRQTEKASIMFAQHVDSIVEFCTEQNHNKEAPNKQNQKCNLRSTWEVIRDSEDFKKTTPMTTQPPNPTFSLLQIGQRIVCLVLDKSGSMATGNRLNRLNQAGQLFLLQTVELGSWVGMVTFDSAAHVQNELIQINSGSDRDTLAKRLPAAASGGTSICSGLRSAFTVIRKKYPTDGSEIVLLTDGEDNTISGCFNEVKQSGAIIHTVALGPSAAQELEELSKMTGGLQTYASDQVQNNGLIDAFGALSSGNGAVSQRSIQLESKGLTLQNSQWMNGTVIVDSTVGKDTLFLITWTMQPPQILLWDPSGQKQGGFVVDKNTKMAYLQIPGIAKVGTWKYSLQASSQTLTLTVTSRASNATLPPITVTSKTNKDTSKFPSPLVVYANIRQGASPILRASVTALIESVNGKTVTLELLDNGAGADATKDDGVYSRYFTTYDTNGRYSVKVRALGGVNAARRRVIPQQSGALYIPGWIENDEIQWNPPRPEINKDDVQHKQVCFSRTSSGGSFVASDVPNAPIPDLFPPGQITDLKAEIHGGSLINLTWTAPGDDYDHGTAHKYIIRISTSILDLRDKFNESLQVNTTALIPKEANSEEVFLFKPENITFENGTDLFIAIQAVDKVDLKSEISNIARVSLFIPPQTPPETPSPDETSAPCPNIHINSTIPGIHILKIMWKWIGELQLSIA
Method: An NCI-H292 cell transfected with a plasmid expressing the human chloride channel hCLCA1 was patch clamped and chloride current (I) was measured over a range of voltages (V). Substantial chloride current was invoked by the addition of 2 μM ionomycin and 2 mM calcium (circles) compared to baseline (squares), indicating activation of hCLCA1.

H292 clone 15 cells [6] = assay: Alamar Blue cytotoxicity; conditions: for Est. LD50 (Alamar Blue): H292 clone 15 cells, 48 hours, average of 3 experiments
Muc5b = assay: Inhibition of Muc5b expression; assay type: cell-based; set-up: key: (+) = inhibition; (−) = no inhibition; conditions: Table 2
Method: The effects of talniflumate derivatives on mucin production were also assayed for changes in ELLA and IC50 (Table 2) as described in the methods above.

[7] = test system: activated Caco2 cell line; assay: Viability of activated Caco2 cells; assay type: cell-based; conditions: even higher concentrations of NFA; FIG. 3
activated LHL4 cells = assay: Eotaxin ELISA, activated LHL4 cells; assay type: cell-based; conditions: increasing concentrations
Method: Activated LHL4 cells that express and secrete eotaxin have been produced and used to test for inhibitors of eotaxin production. These cells were assayed in vitro for eotaxin by an ELISA technique well known in the art (R&D Systems).

[8] = test system: mice sensitized by nasal aspiration of Aspergillus fumigatus antigen; assay: Aspergillus fumigatus antigen murine asthma model, intra-tracheal NFA; assay type: in vivo; conditions: 100 μg NFA intra-tracheal, days 0-21
IL9 transgenic mice = assay: Mucin production in lungs of IL9 transgenic mice; assay type: in vivo; conditions: IT once daily for three days; NFA 100 μg
Method: Certified virus-free male and female IL9 transgenic mice (IL9TG5-FVB/N) 5-6 weeks of age were bred in our laboratories. Male and female FVB/N mice 5-6 weeks of age were purchased from Jackson Laboratories (Bar Harbor Me.). Animals were housed in high-efficiency, particulate filtered air and allowed free access to food and water for 3 to 7 days prior to experimental manipulation. The animal facilities were maintained at 22° C. and the light:dark cycle was automatically controlled (10:14 hour light:dark).
Animals were phenotyped, naïve, or 24 hrs after receiving intra-tracheal (IT) shame (vehicle) treatment, or drugs in the same vehicle as was used in identically treated controls. Mice were treated IT once daily for three days. NFA (100 μg) or antibody to IL-9 were administered in PBS IT. Treatment responses were measured by the assessment of mucin inhibition by histologic exam (PAS staining of greater than 10 sections through the treated and control lungs or western blots of MUC 1, MUC2 and MUC3 expression from the same lungs.
The up-regulation of mucus production in the IL9 transgenic is specifically associated with increased steady-state mRNA levels of MUC2 and MUC5AC as shown by RT-PCR (FIG. 9).

activated Caco2 cells = assay: PAS staining for mucin in activated Caco2 cells; conditions: activated Caco2 cells; 100 μm for NFA and 300 μm for DIDS; vs untreated cells

## O=C1OC(OC(=O)c2cccnc2Nc2cccc(C(F)(F)F)c2)c2ccccc21 (racemic) [Talniflumate, talniflumate]
[1]
  Lung eosinophilia by bronchoalveolar lavage: reduced the number of eosinophilic cells
[1]; listed as talniflumate
  Lung eosinophilia by bronchoalveolar lavage: inhibition of lung eosinophilia
[1]; talniflumate containing chow, Asp-sens mice
  Mucin (PAS) staining in lung: reduced mucin staining; also recorded: inhibition of mucin over production
NCI-H292/hCLCA1 cells
  PAS positive staining muco-glycoconjugates: significantly fewer positive staining muco-glycoconjugates
[2]
  Inhibition of MUC5A/C secretion / mucin production (figure legends): inhibition of mucin production
[2]; Homo sapiens, NCI-H292/hCLCA1 cells, 0 through 150 μM, 48 hours, FIG. 26, read-out: IC50, inhibition of MUC5A/C secretion
  IC50: 36 µM
H292 clone 15 cells [3]; Homo sapiens, NCI-H292
  IC50: 33 µM
[4]
  Body weight gain: 8-12%
[4]; then sacrificed
  Survival: at least 26 days
MUC2
  Lipoteichoic acid induction of MUC2 (luciferase RLU): modulated
[5]
  Chloride Current: reduction in chloride current
H292 clone 15 cells [6]
  Est. LD50 (Alamar Blue): 108 µM
H292 clone 15 cells [6]; NCI-H292/hCLCA1 cells, concentrations up to 150 μM, FIG. 27
  LD50 (Alamar Blue): > 150 µM

## O=C1OC(CC(=O)c2cccnc2Nc2cccc(C(F)(F)F)c2)c2ccccc21 (stereo not drawn) [4 (MSI 2216)]
[2]; Table 2, ELLA, read-out: IC50
  IC50: 5 µM
[2]; Table 2, mucin production
  ELLA: +
H292 clone 15 cells [3]
  IC50: 3 µM
Muc5b
  Inhibition of Muc5b Expression: +
H292 clone 15 cells [6]
  Est. LD50 (Alamar Blue): 32 µM

## O=C(O)c1cccnc1Nc1cccc(C(F)(F)F)c1 [NFA, niflumic acid]
[7]
  Viability of activated Caco2 cells: not affected; also recorded: did not effect their viability
Activated LHL4 cells
  Eotaxin production: Significant inhibition; also recorded: blocks epithelial activation including chemokine production
[8]
  Serum IgE levels: no effect
[8]; vs PBS
  Antigen-induced airway hyperresponsiveness: suppress airway hyperresponsiveness; also recorded: suppresses antigen-induced airway hyperresponsiveness
  BAL lung eosinophilia: suppress; also recorded: reduces antigen-induced lung eosinophilia
  Over-production of mucus in the lung caused by exposure to antigen: suppress the over-production of mucus; also recorded: blocks increased mucin expression
IL9 transgenic mice
  Mucin production in IL9 transgenic lungs: decreased mucin production
NCI-H292/hCLCA1 cells
  PAS positive staining muco-glycoconjugates: significantly fewer positive staining muco-glycoconjugates
Activated Caco2 cells
  PAS positive staining mucin glycoconjugates: significantly fewer positive staining mucin glycoconjugates; also recorded: blocks mucin overproduction in vitro
